Like-named read-outs stand apart in the source and are kept apart here.
What was measured:
[1] = system: PL^pro; settings: read-out: PL^pro IC50; cited from earlier work
[2] = system: SARS-CoV-2; settings: read-out: A549-ACE2 IC50; A549-ACE2 cells; cited from earlier work
[3] = system: Calu-3 cells
[4] = target: SARS-Cov-2 PL^pro (Severe acute respiratory syndrome coronavirus 2, UniProt P0DTD1); experiment: biochemical
[5] = in vitro; settings: human
[6] = system: SARS-CoV-2 (isolate USA WA1/2020); experiment: microbe, parasite or virus in culture; type: cell-based; settings: Severe acute respiratory syndrome coronavirus 2, Calu-3, 48 h, read-out: IC50 (infection)
[7] = system: SARS-CoV-2; settings: cited from earlier work; for EC50: read-out: EC50 in Vero cells
[8] = system: SARS-CoV-2; settings: cited from earlier work
[9] = target: SARS-Cov-2 M^pro (Severe acute respiratory syndrome coronavirus 2, UniProt P0DTD1); experiment: biochemical
[10] = system: SARS-CoV-2; settings: Vero cells, cited from earlier work

Structure (SMILES): COc1ccc2nc3cc(Cl)ccc3c(Nc3cc(CN4CCCC4)c(O)c(CN4CCCC4)c3)c2n1 [pyronaridine tetraphosphate]
- IC50 [1]: 1.8 µM
- IC50 [2]: 0.23 µM

Structure (SMILES): C=CC(=O)Nc1cccc(Oc2nc(Nc3ccc(N4CCN(C)CC4)cc3)nc3ccsc23)c1 [olmutinib]
- cell toxicity in Calu-3 cells (in words) [3]: demonstrated cell toxicity
- IC50 [4]: 0.54 ± 0.04 µM
- CC50 [5]: 12.5 µM
- IC50 [6]: 9.76 µM

Structure (SMILES): CC(C)(C)NC(=O)N[C@H](C(=O)N1C[C@H]2[C@@H]([C@H]1C(=O)NC(CC1CCC1)C(=O)C(N)=O)C2(C)C)C(C)(C)C (some centres unmarked) [boceprevir]
- EC50 [7]: 1.31 µM

Structure (SMILES): CCCCCc1c2c(cc(O)c1C(=O)O)OC(=O)c1c(cc(OC)cc1C(=O)CCCC)O2 [lobaric acid]
- IC50 [4]: 10 ± 1.11 µM

Structure (SMILES): O=C(c1ccc(OCCN2CCCCC2)cc1)c1c(-c2ccc(O)cc2)sc2cc(O)ccc12 [raloxifene]
- SI in Calu-3 cells [8]: 2.7
- IC50 ([8]; read-out: IC50 in Calu-3 cells): 9 µM
- IC50 ([7]; read-out: IC50 against SARS-CoV-2 in Vero cells): 3.9 µM
- IC50 ([7]; read-out: IC50 in Vero, Vero cells): 5.9 µM
- IC50 [9]: 42.8 ± 6.7 µM
- IC50 [4]: 3.28 ± 0.29 µM

Structure (SMILES): C[N+](C)(C)CCOP(=O)(O)OP(=O)([O-])OC[C@H]1O[C@@H](n2ccc(N)nc2=O)[C@H](O)[C@@H]1O [citicoline]
- IC50 [4]: 1.35 ± 0.27 µM

Structure (SMILES): OCCN(CCO)c1nc(N2CCCCC2)c2nc(N(CCO)CCO)nc(N3CCCCC3)c2n1 [dipyridamole]
- EC50 [7]: ~0.1 µM

Structure (SMILES): CC1(C)CCC2=C(O1)c1ccccc1C(=O)C2=O [β-lapachone]
- IC50 [4]: 5.3 ± 0.29 µM

Structure (SMILES): COc1cc2ncnc(Nc3ccc(F)c(Cl)c3)c2cc1NC(=O)/C=C/CN1CCCCC1 [dacomitinib]
- IC50 ([8]; read-out: IC50 against SARS-CoV-2 in Calu-3 cells): 0.04 µM
- IC50 [4]: 3.33 ± 0.06 µM

Structure (SMILES): C[C@@H](Oc1cc(-c2cnn(C3CCNCC3)c2)cnc1N)c1c(Cl)ccc(F)c1Cl [crizotinib]
- cell toxicity in Calu-3 cells (in words) [3]: demonstrated cell toxicity
- IC50 [4]: 3.81 ± 0.04 µM
- CC50 [5]: 5.09 µM
- IC50 [6]: 16.3 µM

Structure (SMILES): COc1cc(Nc2c(C#N)cnc3cc(OCCCN4CCN(C)CC4)c(OC)cc23)c(Cl)cc1Cl [bosutinib]
- SI (anti-SARS-CoV-2 entry activity) [10]: 7.08
- EC50 ([10]; read-out: anti-SARS-CoV-2 entry activity EC50): 2.45 µM
- cell toxicity in Calu-3 cells (in words) [3]: demonstrated cell toxicity
- IC50 [4]: 4.23 ± 0.28 µM
- CC50 [5]: 6.06 µM
- IC50 [6]: 5.26 µM
